This is an account of results in patent US12187742B2 (XRAD Therapeutics, Inc., priority 2018, dated 2025).

The structures appear in SMILES notation. Structures can show the parent of a compound that is named as a salt.

The target in one assay is ATM (Homo sapiens (Human), UniProt Q13315). Briefly: ATM in Cell Western Assay (pKAP1 in etoposide-treated MCF-7 cells). As to conditions: pKAP1 in etoposide-treated MCF-7 cells. The class given is cell-based. Summed up:
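After paraformaldehyde fixation and Triton X-100 permeabilization, immunostained plates were read by infrared scanning (ODYSSEY CLx). Compound was given as 10 doses, 3-fold dilutions from a 1 μM final top concentration.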

Another assay deals with DNA-PK (Homo sapiens (Human), UniProt P78527). Briefly: DNA-PK Enzyme-Linked Immunosorbent Assay (phosphorylation of GST-p53 (1-101) peptide). In kind it is biochemical. As to conditions: ELISA, 20 μM ATP. Summed up: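 Inhibition measured by 450 nm absorbance after HRP/TMB detection of phospho-Ser15 on immobilized GST-p53 (1-101). The kinase reaction used 0.1 μg/mL DNA-PK and 20 μM ATP, 1 h at 25 °C. Ten 3-fold compound dilutions, top final concentration 100 nM.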

ATM, sequence (Q13315 whole entry): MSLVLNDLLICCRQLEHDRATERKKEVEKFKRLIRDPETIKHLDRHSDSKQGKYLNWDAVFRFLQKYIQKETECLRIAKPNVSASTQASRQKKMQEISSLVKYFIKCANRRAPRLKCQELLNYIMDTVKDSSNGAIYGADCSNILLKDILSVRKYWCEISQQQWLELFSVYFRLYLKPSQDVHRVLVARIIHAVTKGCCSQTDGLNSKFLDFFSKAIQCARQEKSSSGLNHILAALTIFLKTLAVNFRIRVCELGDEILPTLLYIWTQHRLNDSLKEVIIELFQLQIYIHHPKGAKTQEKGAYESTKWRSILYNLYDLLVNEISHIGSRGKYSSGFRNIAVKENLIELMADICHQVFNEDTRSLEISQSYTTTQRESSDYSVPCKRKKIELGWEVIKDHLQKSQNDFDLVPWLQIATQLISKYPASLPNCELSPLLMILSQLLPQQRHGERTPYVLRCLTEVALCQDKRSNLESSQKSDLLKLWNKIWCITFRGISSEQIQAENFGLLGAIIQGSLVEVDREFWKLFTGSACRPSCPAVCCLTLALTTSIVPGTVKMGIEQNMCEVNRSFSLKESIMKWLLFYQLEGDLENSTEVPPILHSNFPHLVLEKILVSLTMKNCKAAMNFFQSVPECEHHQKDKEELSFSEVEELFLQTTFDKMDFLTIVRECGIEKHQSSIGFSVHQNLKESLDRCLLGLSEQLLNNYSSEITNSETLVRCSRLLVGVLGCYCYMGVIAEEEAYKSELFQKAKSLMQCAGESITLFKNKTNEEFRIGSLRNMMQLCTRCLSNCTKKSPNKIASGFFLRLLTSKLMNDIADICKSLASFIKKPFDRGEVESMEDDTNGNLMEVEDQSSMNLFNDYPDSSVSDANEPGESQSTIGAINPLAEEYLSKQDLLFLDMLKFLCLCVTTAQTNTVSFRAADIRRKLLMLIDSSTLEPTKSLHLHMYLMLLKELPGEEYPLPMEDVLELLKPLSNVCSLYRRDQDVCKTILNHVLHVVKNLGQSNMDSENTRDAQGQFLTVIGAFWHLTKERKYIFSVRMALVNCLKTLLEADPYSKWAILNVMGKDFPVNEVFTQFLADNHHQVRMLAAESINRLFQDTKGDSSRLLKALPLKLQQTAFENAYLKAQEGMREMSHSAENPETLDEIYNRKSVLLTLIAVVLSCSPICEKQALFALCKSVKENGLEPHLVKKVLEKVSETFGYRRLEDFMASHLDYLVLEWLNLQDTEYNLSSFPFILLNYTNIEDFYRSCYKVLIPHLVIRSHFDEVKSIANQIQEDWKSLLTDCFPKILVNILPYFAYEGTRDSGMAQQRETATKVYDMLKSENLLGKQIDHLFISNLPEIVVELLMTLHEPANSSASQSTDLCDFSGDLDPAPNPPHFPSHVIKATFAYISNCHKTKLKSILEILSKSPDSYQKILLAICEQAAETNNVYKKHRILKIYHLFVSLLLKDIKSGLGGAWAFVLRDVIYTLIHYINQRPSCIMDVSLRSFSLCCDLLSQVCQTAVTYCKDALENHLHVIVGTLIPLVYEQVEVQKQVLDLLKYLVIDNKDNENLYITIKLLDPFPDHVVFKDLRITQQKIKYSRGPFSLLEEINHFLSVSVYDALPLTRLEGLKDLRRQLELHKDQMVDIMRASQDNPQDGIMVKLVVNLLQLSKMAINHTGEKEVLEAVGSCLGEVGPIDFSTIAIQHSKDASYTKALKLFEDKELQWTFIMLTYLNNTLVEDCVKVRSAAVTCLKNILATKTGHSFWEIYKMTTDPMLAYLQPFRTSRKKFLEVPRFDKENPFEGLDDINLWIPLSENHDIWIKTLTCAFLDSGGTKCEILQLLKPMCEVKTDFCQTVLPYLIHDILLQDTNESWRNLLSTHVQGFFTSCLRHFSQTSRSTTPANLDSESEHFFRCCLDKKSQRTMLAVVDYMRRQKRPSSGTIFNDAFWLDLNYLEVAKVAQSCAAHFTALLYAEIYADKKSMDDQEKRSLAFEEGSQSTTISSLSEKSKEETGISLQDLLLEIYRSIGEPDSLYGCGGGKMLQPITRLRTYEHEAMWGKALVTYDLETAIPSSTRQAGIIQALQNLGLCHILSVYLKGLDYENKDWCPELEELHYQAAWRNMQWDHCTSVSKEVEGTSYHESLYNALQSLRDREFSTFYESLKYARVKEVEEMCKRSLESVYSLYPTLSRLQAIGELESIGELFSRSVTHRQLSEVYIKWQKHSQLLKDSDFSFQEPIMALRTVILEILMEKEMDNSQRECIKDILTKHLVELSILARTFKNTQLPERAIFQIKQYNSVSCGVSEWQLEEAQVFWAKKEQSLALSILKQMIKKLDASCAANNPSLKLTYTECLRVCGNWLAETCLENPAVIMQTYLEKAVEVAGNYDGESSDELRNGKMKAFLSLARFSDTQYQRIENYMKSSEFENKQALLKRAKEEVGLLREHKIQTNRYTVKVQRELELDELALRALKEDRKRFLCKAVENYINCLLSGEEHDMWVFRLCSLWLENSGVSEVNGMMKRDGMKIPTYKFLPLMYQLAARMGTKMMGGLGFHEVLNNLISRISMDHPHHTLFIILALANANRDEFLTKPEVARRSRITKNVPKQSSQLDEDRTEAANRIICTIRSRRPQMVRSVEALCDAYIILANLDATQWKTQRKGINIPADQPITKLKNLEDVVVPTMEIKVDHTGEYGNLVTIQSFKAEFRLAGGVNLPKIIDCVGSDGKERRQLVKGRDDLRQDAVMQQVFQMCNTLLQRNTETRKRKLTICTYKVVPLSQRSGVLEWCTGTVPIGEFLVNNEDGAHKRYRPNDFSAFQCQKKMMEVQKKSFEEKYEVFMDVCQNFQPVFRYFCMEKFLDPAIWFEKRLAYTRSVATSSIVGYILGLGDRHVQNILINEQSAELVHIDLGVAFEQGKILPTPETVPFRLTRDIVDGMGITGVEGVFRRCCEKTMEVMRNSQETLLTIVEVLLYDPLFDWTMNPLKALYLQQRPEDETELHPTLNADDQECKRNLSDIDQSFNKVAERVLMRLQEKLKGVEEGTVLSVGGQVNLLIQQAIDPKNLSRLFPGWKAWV

Turning to `COc1ccccc1N1CC2(C1)C(=O)N(C)c1cnc3cc(F)c(-c4cnc(OCCNC(C)C)c(NS(C)(=O)=O)c4)cc3c12` [Example 535, N-(5-(7′-Fluoro-1-(2-methoxyphenyl)-3′-methyl-2′-oxo-2′,3′-dihydrospiro [azetidine-3,1′-pyrrolo[2,3-c]quinolin]-8′-yl)-2-(2-(isopropylamino)ethoxy)pyridin-3-yl)methanesulfonamide], the IC50 on ATM and on DNA-PK was 1 to 100 nM throughout.

As to `CC(C)NCCOc1ncc(-c2cc3c4c(cnc3cc2F)N(C)C(=O)C42CN(c3ccc(C(F)(F)F)cc3)C2)cc1NS(C)(=O)=O` [Example 536, N-(5-(7′-Fluoro-3′-methyl-2′-oxo-1-(4-(trifluoromethyl)phenyl)-2′,3′-dihydrospiro[azetidine-3,1′-pyrrolo[2,3-c]quinolin]-8′-yl)-2-(2-(isopropylamino)ethoxy)pyridin-3-yl)methanesulfonamide hydrochloride], the concentration for half-maximal inhibition (IC50) against ATM and on DNA-PK was 1 to 100 nM throughout.

As to `CC(C)NCCOc1ncc(-c2cc3c4c(cnc3cc2F)N(C)C(=O)C42CN(c3ccc(F)cc3)C2)cc1NS(C)(=O)=O` [Example 538, N-(5-(7′-Fluoro-1-(4-fluorophenyl)-3′-methyl-2′-oxo-2′,3′-dihydrospiro [azetidine-3,1′-pyrrolo[2,3-c]quinolin]-8′-yl)-2-(2-(isopropylamino)ethoxy)pyridin-3-yl)methanesulfonamide hydrochloride], the IC50 against ATM and against DNA-PK was 1 to 100 nM throughout.

With `CC(C)NCCOc1ncc(-c2cc3c4c(cnc3cc2F)N(C)C(=O)C42CN(c3cccc(F)c3)C2)cc1NS(C)(=O)=O` [Example 539, N-(5-(7′-Fluoro-1-(3-fluorophenyl)-3′-methyl-2′-oxo-2′,3′-dihydrospiro[azetidine-3,1′-pyrrolo[2,3-c]quinolin]-8′-yl)-2-(2-(isopropylamino)ethoxy)pyridin-3-yl)methanesulfonamide], the IC50 was 1 to 100 nM on ATM and less than 0.5 nM on DNA-PK.

On to `CC(C)NCCOc1ncc(-c2cc3c4c(cnc3cc2F)N(C)C(=O)C42CN(c3ccccc3F)C2)cc1NS(C)(=O)=O` [Example 540, N-(5-(7′-Fluoro-1-(2-fluorophenyl)-3′-methyl-2′-oxo-2′,3′-dihydrospiro [azetidine-3,1′-pyrrolo[2,3-c]quinolin]-8′-yl)-2-(2-(isopropylamino)ethoxy)pyridin-3-yl)methanesulfonamide], for which the IC50 against ATM is 1 to 100 nM; against DNA-PK, less than 0.5 nM.

Take `CC(C)NCCOc1ncc(-c2cc3c4c(cnc3cc2F)N(C)C(=O)C42CN(c3ccc(OC(F)(F)F)cc3)C2)cc1NS(C)(=O)=O` [Example 541, N-(5-(7′-Fluoro-3′-methyl-2′-oxo-1-(4-(trifluoromethoxy)phenyl)-2′,3′-dihydrospiro[azetidine-3,1′-pyrrolo[2,3-c]quinolin]-8′-yl)-2-(2-(isopropylamino)ethoxy)pyridin-3-yl)methanesulfonamide]: the IC50 on ATM and at DNA-PK was 1 to 100 nM in each case.

In the case of `CC(C)NCCOc1ncc(-c2cc3c4c(cnc3cc2F)N(C)C(=O)C42CN(c3ccc(-c4ccccc4)cc3)C2)cc1NS(C)(=O)=O` [Example 543, N-(5-(1-([1,1′-Biphenyl]-4-yl)-7′-fluoro-3′-methyl-2′-oxo-2′,3′-dihydrospiro[azetidine-3,1′-pyrrolo[2,3-c]quinolin]-8′-yl)-2-(2-(isopropylamino)ethoxy)pyridin-3-yl)methanesulfonamide], the half-maximal inhibitory concentration (IC50) on ATM and against DNA-PK was 1 to 100 nM in each case.

Take `CC(C)NCCOc1ncc(-c2cc3c4c(cnc3cc2F)N(C)C(=O)C42CN(c3ccc4c(c3)OCO4)C2)cc1NS(C)(=O)=O` [Example 544, N-(5-(1-(Benzo[d][1,3]dioxol-5-yl)-7′-fluoro-3′-methyl-2′-oxo-2′,3′-dihydrospiro[azetidine-3,1′-pyrrolo[2,3-c]quinolin]-8′-yl)-2-(2-(isopropylamino)ethoxy)pyridin-3-yl)methanesulfonamide]: the half-maximal inhibitory concentration (IC50) is 1 to 100 nM against ATM and less than 0.5 nM against DNA-PK.

Take `CC(C)NCCOc1ncc(-c2cc3c4c(cnc3cc2F)N(C)C(=O)C42CN(c3ccc4c(c3)OCCO4)C2)cc1NS(C)(=O)=O` [Example 545, N-(5-(1-(2,3-Dihydrobenzo[b][1,4]dioxin-6-yl)-7′-fluoro-3′-methyl-2′-oxo-2′,3′-dihydrospiro[azetidine-3,1′-pyrrolo[2,3-c]quinolin]-8′-yl)-2-(2-(isopropylamino)ethoxy)pyridin-3-yl)methanesulfonamide]: the IC50 against ATM was 1 to 100 nM; at DNA-PK, 0.5 to 1 nM.

As to `CN(C)CCCOc1ncc(-c2ccc3ncc4c(c3c2)C2(CC(F)(F)C2)C(=O)N4C)cc1NS(C)(=O)=O` [Example 554, N-(5-(3,3-Difluoro-3′-methyl-2′-oxo-2′,3′-dihydrospiro[cyclobutane-1,1′-pyrrolo[2,3-c]quinolin]-8′-yl)-2-(3-(dimethylamino)propoxy)pyridin-3-yl)methanesulfonamide], the 50% inhibitory concentration (IC50) against ATM and against DNA-PK was 1 to 100 nM in each case.

The IC50 is the midpoint of a concentration-inhibition curve. Higher therefore signals weaker potency.
